{"source": "ChEMBL document CHEMBL1159362", "about": "“New cytotoxic indole alkaloids from Tabernaemontana calcarea from the Madagascar rainforest” (J Nat Prod, 2003)", "test_system": "A2780", "assay": "Cytotoxicity against human A2780 cells", "format": "functional, cell-based"}
{"smiles": "CC[C@H]1C[C@@H]2CN3CCc4c([nH]c5ccc(OC)cc45)[C@](C(=O)OC)(C2)[C@H]13", "note": "[VOACANGINE]", "values": [{"measurement": "IC50", "value": 10.4, "unit": "µg/mL"}]}
{"smiles": "COC(=O)[C@@]12C[C@@H]3C[C@H]([C@H](C)O)[C@@H]1N(CCc1c2[nH]c2cc(OC)ccc12)C3", "note": "[ISOVOACRISTINE]", "values": [{"measurement": "IC50", "value": 9.6, "unit": "µg/mL"}]}
{"smiles": "CC[C@H]1C[C@H]2C[C@H]3c4[nH]c5ccccc5c4CCN(C2)[C@@H]13", "note": "[IBOGAMINE]", "values": [{"measurement": "IC50", "value": 3.5, "unit": "µg/mL"}]}
{"smiles": "CC[C@H]1C[C@@H]2CN3CCc4c([nH]c5ccccc45)[C@](C(=O)OC)(C2)[C@H]13", "note": "[CORONARIDINE]", "values": [{"measurement": "IC50", "value": 9.9, "unit": "µg/mL"}]}
{"smiles": "COC(=O)[C@@]12C[C@@H]3C[C@H]([C@@H](C)O)[C@@H]1N(CC[C@]1(O)C2=Nc2ccc(OC)cc21)C3", "values": [{"measurement": "IC50", "value": 10.8, "unit": "µg/mL"}]}
{"smiles": "C[C@@H](O)[C@@H]1C[C@H]2C[C@H]3c4[nH]c5ccccc5c4CCN(C2)[C@@H]13", "values": [{"measurement": "IC50", "value": 8.9, "unit": "µg/mL"}]}
{"smiles": "CC[C@H]1C[C@H]2CC3c4[nH]c5cc(OC)ccc5c4CCN(C2)[C@H]31", "values": [{"measurement": "IC50", "value": 4.9, "unit": "µg/mL"}]}
{"smiles": "C[C@H](O)[C@@H]1C[C@H]2C[C@H]3c4[nH]c5ccccc5c4CCN(C2)[C@@H]13", "note": "[HEYNEANINE]", "values": [{"measurement": "IC50", "value": 10.7, "unit": "µg/mL"}]}
{"smiles": "COC(=O)[C@@]12C[C@@H]3C[C@H]([C@@H](C)O)[C@@H]1N(CCc1c2[nH]c2ccc(OC)cc12)C3", "note": "[19(R)-HEYNEANINE]", "values": [{"measurement": "IC50", "value": 4, "unit": "µg/mL"}]}
{"smiles": "CC[C@H]1C[C@@H]2CN3CCc4c([nH]c5cc(O)ccc45)[C@](C(=O)OC)(C2)[C@H]13", "values": [{"measurement": "IC50", "value": 4.8, "unit": "µg/mL"}]}
{"smiles": "CC[C@H]1C[C@H]2C[C@H]3c4[nH]c5ccc(OC)cc5c4CCN(C2)[C@@H]13", "note": "[IBOGAINE]", "values": [{"measurement": "IC50", "value": 10.2, "unit": "µg/mL"}]}
{"smiles": "CC[C@H]1C[C@@H]2CN3CCc4c([nH]c5cc(OC)ccc45)[C@](C(=O)OC)(C2)[C@H]13", "note": "[ISOVOACANGINE]", "values": [{"measurement": "IC50", "value": 9.4, "unit": "µg/mL"}]}
{"smiles": "COC(=O)[C@@]12C[C@@H]3C[C@H]([C@H](C)O)[C@@H]1N(CCc1c2[nH]c2ccc(OC)cc12)C3", "note": "[VOACRISTINE]", "values": [{"measurement": "IC50", "value": 11, "unit": "µg/mL"}]}
{"smiles": "CC[C@H]1C[C@H]2C[C@H]3c4[nH]c5cc(OC)ccc5c4CCN(C2O)[C@@H]13", "note": "(mixture of isomers)", "values": [{"measurement": "IC50", "value": 7.9, "unit": "µg/mL"}]}
{"smiles": "COC(=O)[C@@]12C[C@@H]3C[C@H]([C@@H](C)O)[C@@H]1N(CCc1c2[nH]c2ccc(OC)cc12)C3=O", "values": [{"measurement": "IC50", "value": 6.8, "unit": "µg/mL"}]}
